US20240148745A1, “COMPOUNDS FOR USE IN PROGRESSIVE MULTIPLE SCLEROSIS” (FONDAZIONE CENTRO SAN RAFFAELE, priority 2021, published 2024)
Counter-ions that a name gives are not always drawn.

Columns and labels:
[1] = tested on: rat oligodendrocyte progenitor CG4 line; assay: Differentiation assay on rat oligodendrocyte progenitor CG4 line (HCS, mCherry+); type: cell-based; settings: 1 μM; for CG4 differentiation compared with 9cis-RA positive control: secondary screen of 49 selected compounds, 5 days
Source text: Primary validation on CG4 line toxicity and differentiation. An innovative OPC line was developed for fast and reliable high content screening (HCS) of small compounds inducing oligodendrocyte differentiation. The line was genetically engineered by lentiviral transduction of rat CG4 cells (PubMed=1613821; DOI=10.1002/jnr.490310125; Louis J. C., Magal E., Muir D., Manthorpe M., Varon S.; CG-4, a new bipotential glial cell line from rat brain, is capable of differentiating in vitro into either mature oligodendrocytes or type-2 astrocytes. J. Neurosci. Res. 31:193-204(1992) to express mCherry fluorescent reporter (Evercooren, Anne & Avellana-Adalid, V. & Vitry, Sandrine & Nait-Oumesmar, Brahim & Lachapelle, Francois. (1997). Expansion of Oligodendrocyte Progenitors for Myelin Repair. 10.1007/978-1-4615-5949-8_21) in mature oligodendrocytes only, and EGFP at all stage of the oligodendroglial lineage: both the generation of mature oligodendrocytes (wmNl-mCherry) and the morphological changes associated with differentiation (CMV-EGFP) can be therefore monitored in a single assay. mCherry expression occurred only in O4+/GalC+ differentiated oligodendrocytes and GFP was ubiquitously expressed at all developmental stages. The line so obtained was validated using compounds with well-established effects on oligodendrocyte differentiation (cAMP and T3). Cell-based assay was standardized on the HCS platform (ArrayScanXTI, Brain and Spine Institute (Paris), validating the pro-differentiation effects of clemastine^27 and 9cis-retinoic acid.^28 For HCS validation of 274 compounds identified through in silico screen, double-fluo CG4 line cells were plated in 96 well-plates, 6500 cells/cm^2 and left for 24 h in proliferation. The other day, compounds were added (1 μM) for next 5 days of differentiation, with ⅔ medium changed after 3 days. 9-cis Retinoic Acid (9cis-RA; […]) served as a positive control, negative controls were basal (N1) medium and vehicle (basal+0.1% DMSO). Each compound was tested in triplicate and were imaged with ArrayScanXTI system (35 fields/well) after 5 days of differentiation.
FIG. 4 provides a schematic representation of High Content Screening (HCS) validation of the 274 compounds identified through in silico screening using CG4 line. […] In addition, the whole short list of 160 non-toxic compounds were screened using the CG4 high content phenotypic assay to further confirm the data from primary screening and to potentially select additional compounds with pro-myelinating activities. From this screening of the short list, 49 hit compounds were identified that increase differentiation either of CG4 cells or primary OPCs (FIG. 6).

rat primary OPC cultures = assay: Differentiation of rat primary OPC into MBP+ OLs; type: cell-based; settings: 96 h, 4 days of differentiation, read-out: MBP+ differentiation (MBP+/SOX10+ OLs plus compounds / plus basal medium)
Experimental: Secondary validation on primary rat OPC differentiation. Re-validation of the best performing compounds promoting OPC differentiation (fold change >1.5) was performed on primary rat OPC cultures in 96 well-plate run in triplicates by triple immunolabeling for CNPase, MBP and SOX10 as a readout. Compounds at […] were added for 4 days of differentiation and then cell cultures were imaged with ArrayScanXTI platform, number of MBP+OLs were quantified by semi-automated software. Basal medium served as a negative control, 9 cis-RA ([…]) was a positive control.
Re-validation of the 49 compounds selected from the short list (160 compounds) using rat primary OPC cultures (compounds tested in triplicates in 3 independent experiments. The secondary validation screen of these compounds performed on rat primary OPC cultures selected 17 best lead compounds with a pro-differentiation activity (MBP+/SOX10+OLs plus compounds/MBP+SOX10+ plus basal medium fold increase) induced a strong differentiation into MBP+OLs (fold increase >1.6). Results are shown in FIG. 7.

[2] = tested on: murine cortical neurons (14 DIV); assay: NMDA-mediated neuroprotective assay (CCK8 viability); type: cell-based, mouse; settings: 1 μM, 3 h pre-treatment, NMDA 8 μM 24 h, p<0.05
Experimental: To assess neuroprotective activity of 160 selected non-toxic compounds on primary murine cortical neurons, obtained as described in the previous paragraph, ([…]), cultures were pre-treated with 1 μM compounds for either 3 or 24 hours, followed by 24 hours chronic stimulation with NMDA (8 μM) to induce neuronal damage. Each test plate included: a negative control (untreated), vehicle-treated control (0.02% vol/vol DMSO), a positive neurotoxic control—staurosporine 0.1 μM, a stressor—NMDA 8 μM, a positive neuroprotective control—NAC 300 μM, and a combination of stressor +neuroprotective molecule (NMDA+NAC). Cell viability was measured with Cell Counting Kit-8 assay compared to NMDA-treated control.
The potential neuroprotective activity of 160 selected non-toxic compounds was evaluated on murine cortical neurons (14 DIV) with either 3 h (FIG. 13) or 24 h compounds pre-treatment (FIG. 14). In assay with 3 h pre-treatment, 17 compounds were identified as potential NMDA-neuroprotective hits (marked with black asterisk in FIG. 13, stat. significant at p<0.05, Kruskal-Wallis test with post-hoc two-stage linear step-up procedure of Benjamini, Krieger and Yekutieli multiple comparison correction).

mouse cortical neurons = assay: Morphological integrity evaluation, NMDA 8 μM (MAP2 neurite length and branching); type: cell-based; settings: 3 h pre-treatment, NMDA 8 μM 24 h; Z>0.5 criteria
Experimental: Apart of viability/metabolic readout in NMDA-mediated neurotoxicity assay, a neuronal structural integrity was evaluated by MAP2 staining. Mouse cortical neurons (14 DIV) cultured in MW96 plates were fixed with 4% paraformaldehyde (PFA). Fixed cells were incubated with blocking solution (PBS 1×, donkey serum 5%, Triton 0.1%) for 1-hour, primary antibody (rabbit α-MAP2, 1:250, Millipore) was applied in the same solution overnight at +4° C. […] Nuclei were stained with 4′-6-diamidino-2-phenylindole (DAPI, Roche). Microscopy was performed using ArrayScan™XTI (ThermoFisher) imaging platform. 15 images per well were acquired and analyzed by CellProfiler. Total neurite length and the total number of non-trunk branches were analyzed. Total neurite length and the total number of branching were evaluated from 15 images/well, each compound or control was tested in triplicates. The total neurite length and total number of branches were converted to a standardized Z-score using formula: Xij=((Xij−μ)/σ), where xij is the raw measurement of the compound located in well (i, j), and μ and σ are, respectively, the mean and the standard deviation of all measurements of the plate.^31
The morphological integrity of mouse cortical neurons upon chronic 24 h NMDA (8 μM) exposure with compounds pre-treatment (3 h) in preventive regimen was evaluated. Control (basal), DMSO, N-acetylcysteine (NAC) served as positive controls, while staurosporine and NMDA were negative controls.

| SMILES | CG4 differentiation compared with 9cis-RA positive control [1] | fold induction at 1 µM (rat primary OPC cultures) | neuroprotection of viability/metabolic activity against NMDA [2] | further results |
| --- | --- | --- | --- | --- |
| COc1cc(OC)nc(O[C@H](C(=O)O)C(OC)(c2ccccc2)c2ccccc2)n1 | promoting differentiation significantly higher than 9cis-RA positive control | > 1.6 |  |  |
| Nc1ncnc2nc[nH]c12 [Adenine] |  |  | hit compounds | preservation of neurite length and network integrity (branching) (mouse cortical neurons): preserved both neurite length and the network integrity (branching) |
| CN1[C@@H]2CC[C@H]1C[C@@H](OC(c1ccccc1)c1ccccc1)C2 [BENZATROPINE] | promoting differentiation significantly higher than 9cis-RA positive control | > 1.6 |  | CG4 differentiation, fold increase relative to control [1]: over 1.5 fold |
| CCOC(=O)c1cnc2c(cnn2CC)c1NN=C(C)C [Etazolate] |  | > 1.6 |  |  |
| CC1(C)O[C@@H]2C[C@H]3[C@@H]4C[C@H](F)C5=CC(=O)C=C[C@]5(C)[C@@]4(F)[C@@H](O)C[C@]3(C)[C@]2(C(=O)CO)O1 [Fluocinolone acetonide, Fluocinolone Acetonide] |  |  | hit compounds |  |
| CN1[C@@H]2CC[C@H]1C[C@@H](OC(=O)[C@H](CO)c1ccccc1)C2 [Hyoscyamine] |  |  | hit compounds | preservation of neurite length and network integrity (branching) (mouse cortical neurons): preserved both neurite length and the network integrity (branching) |
| N[C@@H](CO)C(=O)O [L-Serine] |  |  | hit compounds |  |
| CNC(=O)c1cccc2cc(Oc3ccnc4cc(OCC5(N)CC5)c(OC)cc34)ccc12 [LUCITANIB] | promoting differentiation significantly higher than 9cis-RA positive control | > 1.6 |  |  |
| COCCNCc1ccc(-c2cc3nccc(Oc4ccc(NC(=S)NC(=O)Cc5ccc(F)cc5)cc4F)c3s2)nc1 [MGCD-265] |  | > 1.6 |  |  |
| CN(C(=O)/C=C/c1ccoc1)[C@@H]1CC[C@@]2(O)[C@H]3Cc4ccc(O)c5c4[C@@]2(CCN3CC2CC2)[C@H]1O5 [Nalfurafine hydrochloride] |  |  | hit compounds |  |
| FC(F)(F)c1ccc(CNc2ccc(Cc3c[nH]c4ncc(Cl)cc34)cn2)cn1 [PLX-3397] | promoting differentiation significantly higher than 9cis-RA positive control | > 1.6 |  |  |
| Cn1c(=O)c(Oc2ccc(F)cc2F)cc2cnc(NC(CCO)CCO)nc21 [Pamapimod] |  |  | hit compounds |  |
| CC(C)(C)c1cc(NC(=O)Nc2ccc(-c3cn4c(n3)sc3cc(OCCN5CCOCC5)ccc34)cc2)no1 [Quizartinib] | promoting differentiation significantly higher than 9cis-RA positive control | > 1.6 |  |  |
| NC(=O)[C@@H]1CC[C@H](c2ccc(OCc3ccccc3F)cc2)N1 [Raxatrigine] |  |  | hit compounds | preservation of neurite length and network integrity (branching) (mouse cortical neurons): preserved both neurite length and the network integrity (branching) |
| O=C(Nc1ccccc1Br)N[C@@H]1CCN(c2ccc(C(F)(F)F)cn2)C1 [SB-705498] |  |  | hit compounds |  |
| Cc1[nH]c(/C=C2\C(=O)Nc3ccc(F)cc32)c(C)c1C(=O)NC[C@H](O)CN1CCOCC1 [SU14813] |  | > 1.6 |  |  |
